Results on eight molecules are retold here after patent US4673562A, “Bisamide bisthiol compounds useful for making technetium radiodiagnostic renal agents” (The Children's Medical Center Corporation, priority 1983, dated 1987).

Data set [1] can be described thus: Gamma camera: % total dose in bladder, 99mTc complexes coinjected with 131I-OIH into normal dogs (Tables I, III). Format: in vivo, dog. Further details: Comparison of % total dose in bladder versus 131I-OIH, column headed by drawing 19 (± s.d.): unit not given here. The settings on record: for % Total Dose In Bladder (gamma camera data): single animals. How it is done:
The two fractions collected from the products of synthesis in each case were denoted (XVIA), (XVIB), (XXXIA), and (XXXIB), respectively.
Images were recorded at 1, 5, 10, 15, 20, 25, 30 and 35 minutes after administration. The initial image at one minute was used to collect 750,000 counts. All subsequent images were exposed for the same length of time as this first image, and the number of counts noted. […] In this way, the counts collected in the camera images cound be related to absolute activity levels (mCi or μCi). The animals were then observed until the urine samples were free of ^99m Tc.
The values represent the calculated % total dose in the camera region of interest set over the bladder.

Data set [2] in a line: Biodistribution in Swiss Webster albino male mice, coinjected with 131I-OIH (Tables IV, V). Format: in vivo, mouse. How it is done: The diastereomers (XVIA) and (XVIB) were synthesized and then isolated by high pressure liquid chromatography as described previously, and their biodistributions obtained in groups in six Swiss Webster albino male mice. […] The mice were then placed in metabolic cages to collect urine. At 10 and 120 minutes after injection, the penis was ligated, the mice killed with chloroform vapor, and the organs disected.

The conditions of data set [3]: cited from earlier work.
The conditions of data set [4]: in vivo; cited from earlier work.
Data set [5] can be described thus: Solubility of bisthiol compound. The format is physicochemical.
Data set [6] is described as follows: Average % total dose in urine samples of dogs (Table II). The settings on record: mean. Format: in vivo, dog. From the text:
The diastereomeric ^99m Tc complexes formed by reduction of pertechnetate in the presence of (2-benzoylthioacetyl)- glycyl-(S-benzoyl)-cysteine methyl ester (compound XVI) and N-2-(benzoylthio)ethyl)-N'-1-carbomethoxy-(2-benzoylthio)ethyl]oxamide (compound XXXI) were synthesized and separated by high pressure liquid chromatography. The two fractions collected from the products of synthesis in each case were denoted (XVIA), (XVIB), (XXXIA), and (XXXIB), respectively.
Samples of each fraction were mixed with appropriate amounts of ^131 I-OIH and coinjected into normal dogs placed under a gamma camera. Images were recorded at 1, 5, 10, 15, 20, 25, 30 and 35 minutes after administration. The initial image at one minute was used to collect 750,000 counts. All subsequent images were exposed for the same length of time as this first image, and the number of counts noted. Immediately after each count, a urine sample was drawn from the bladder via a indwelling catheter, and the ^99m Tc ANd ^131 I activity determined using an ionization chamber. In this way, the counts collected in the camera images cound be related to absolute activity levels (mCi or μCi). The animals were then observed until the urine samples were free of ^99m Tc.
In Table II can be seen the average % total dose valus observed in the urine samples collected at each time point. Also quoted in parentheses are the standard deviation and standard error of the mean.

[7] abbreviates: Table IV, 10 min, XVI A and 131I-OIH coinjected.
The mark [8] stands for this setting: Table IV, 120 min, XVI A and 131I-OIH coinjected.
Where [9] appears, read: Table V, 10 min, XVI B and 131I-OIH coinjected.
Setting [10] is: Table V, 120 min, XVI B and 131I-OIH coinjected.

Several values for one entry are separate records, joined by “and”; a condition that tells them apart may be missing. Equal values may be shown once.

With `O=C(O)CNC(=O)c1ccccc1[131I]` [Compound 131I-OIH, ^131 I-ortho-iodohippurate, reference compound], the “% total dose in bladder at 35 minutes, Average 131I (± s.d)” value in data set [1] (Table III, 35 min, average of dogs, coinjected with the 99mTc complex of the line) was 73.60 % total dose and 72.02 % total dose and 76.69 % total dose and 80.87 % total dose. In addition, the “% total dose in bladder at 35 minutes, 131I” value in data set [1] (Table III, 35 min, single dogs, coinjected with the 99mTc complex of the line) is 73.14 % total dose and 77.31 % total dose and 70.39 % total dose and 61.75 % total dose and 77.21 % total dose and 77.10 % total dose and 74.35 % total dose and 82.53 % total dose and 73.20 % total dose and 87.52 % total dose and 75.71 % total dose and 79.39 % total dose. For the same molecule, in data set [2] (setting [7]), the “Blood, % total dose per organ ± s.d.” value was found to be 2.80 ± 0.24 % total dose per organ; the “Intestine, % total dose per organ ± s.d.” value worked out at 1.15 ± 0.23 % total dose per organ; the “Kidneys, % total dose per organ ± s.d.” value was 2.18 ± 0.29 % total dose per organ; the “Liver, % total dose per organ ± s.d.” value is 1.36 ± 0.24 % total dose per organ. Also, in data set [2] (setting [7]), the “Stomach, % total dose per organ ± s.d.” value was determined as 0.36 ± 0.10 % total dose per organ and the “Urine, % total dose ± s.d.” value stood at 64.80 ± 7.31 % total dose per organ. In data set [2] (setting [8]), the “Blood, % total dose per organ ± s.d.” value amounted to 0.22 ± 0.04 % total dose per organ; the “Intestine, % total dose per organ ± s.d.” value is listed as 0.45 ± 0.19 % total dose per organ; the “Kidneys, % total dose per organ ± s.d.” value is on record as 0.01 ± 0.06 % total dose per organ; the “Liver, % total dose per organ ± s.d.” value is reported as 0.14 ± 0.03 % total dose per organ. In data set [2] (setting [8]), the “Stomach, % total dose per organ ± s.d.” value was 0.60 ± 0.19 % total dose per organ and the “Urine, % total dose ± s.d.” value is on record as 89.86 ± 3.03 % total dose per organ. Moreover, in data set [2] (setting [9]), the “Blood, % total dose per organ ± s.d.” value is 2.11 ± 0.62 % total dose per organ; the “Intestine, % total dose per organ ± s.d.” value turned out to be 0.91 ± 0.27 % total dose per organ; the “Kidneys, % total dose per organ ± s.d.” value came out at 3.09 ± 3.36 % total dose per organ; the “Liver, % total dose per organ ± s.d.” value worked out at 1.20 ± 0.41 % total dose per organ. In addition, in data set [2] (setting [9]), the “Stomach, % total dose per organ ± s.d.” value amounted to 0.42 ± 0.63 % total dose per organ and the “Urine, % total dose ± s.d.” value is on record as 78.86 ± 5.1 % total dose per organ. In data set [2] (setting [10]), the “Blood, % total dose per organ ± s.d.” value is 0.19 ± 0.08 % total dose per organ; the “Intestine, % total dose per organ ± s.d.” value is listed as 0.24 ± 0.04 % total dose per organ; the “Kidneys, % total dose per organ ± s.d.” value stood at 0.05 ± 0.04 % total dose per organ; the “Liver, % total dose per organ ± s.d.” value stood at 0.10 ± 0.04 % total dose per organ. In data set [2] (setting [10]), the “Stomach, % total dose per organ ± s.d.” value was found to be 0.71 ± 0.27 % total dose per organ and the “Urine, % total dose ± s.d.” value worked out at 93.25 ± 0.89 % total dose per organ. The “time to maximum uptake in normal kidneys” value in data set [3] (bolus injection) is recorded as “within the first five minutes”. Moreover, in data set [3] (in vivo), the “clearance relative to PAH” value is recorded as “lower clearance than PAH”. The “injected dose found in the urine” value in data set [3] (normally hydrated patient, at thirty minutes, 30 min) was “approximately 70%”. In data set [3] (normally hydrated patient, bolus injection), the “clearance from the renal parenchyma and collecting system” value is “within thirty minutes”.
For the molecule `O=C1C[S][Tc-]23(=[O])[S]CC(=O)[N]2CC[N]13` [[TcO(ema)]-], the “excretion route and metabolic state” value in data set [4] is “excreted into both the urine and bile in a chemically unchanged form”.
For the molecule `O=C(O)Cn1cc(I)c(=O)c(I)c1` [iodo-pyracet], in data set [3] (in vivo), the “removal from circulation by the liver” value is “partial removal from the circulation by the liver”.
Consider `O=C([O-])CN(CCN(CC(=O)[O-])CC(=O)[O-])CCN(CC(=O)[O-])CC(=O)[O-].[99Tc+4]` [Compound 99mTc-DTPA], for which, in data set [3] (in vivo), the route of excretion entry is on record as “excreted exclusively by glomerular filtration”.
`Nc1ccc(C(=O)NCC(=O)O)cc1` [PAH, Paraaminohippuric acid]: in data set [3] (kidneys), the “elimination by glomerular filtration” value was 20% and the “elimination by tubular secretion” value is 80%. The “renal plasma flow as measured by PAH” value in data set [3] (normal adult) is listed as “about 575 ml/minute”. Besides, in data set [3] (normal kidney), the “extraction by the normal kidney” value is 90%.
Take `O=C(NCCS)C(=O)NCCS` [XXXII, N, N'-bis(2-mercaptoethyl)oxamide]: the solubility result in data set [5] was “soluble only in DMSO, trifluoroacetic acid and aqueous alkali”.
Take `O=C(O)C1C[S][Tc-]23(=[O])[S]CC(=O)[N]2CC(=O)[N]13` (single isomer, unassigned) [XVIB]: the “% Total Dose In Bladder (gamma camera data)” value in data set [1] (5 min post injection, normal dogs, 5 min) was 12.31 % total dose and 10.03 % total dose and 19.60 % total dose; in data set [1] (10 min post injection, normal dogs, 10 min), 28.53 % total dose and 33.78 % total dose and 36.51 % total dose; in data set [1] (15 min post injection, normal dogs, 15 min), 39.47 % total dose and 45.88 % total dose and 47.52 % total dose; in data set [1] (20 min post injection, normal dogs, 20 min), 45.09 % total dose and 53.55 % total dose and 55.57 % total dose; in data set [1] (25 min post injection, normal dogs, 25 min), 48.09 % total dose and 60.94 % total dose and 59.98 % total dose; in data set [1] (30 min post injection, normal dogs, 30 min), 53.05 % total dose and 64.60 % total dose and 70.00 % total dose. The “% Total Dose In Bladder (gamma camera data)” value in data set [1] (35 min post injection, normal dogs, 35 min) is 54.63 % total dose and 73.12 % total dose and 71.57 % total dose. Also, in data set [1] (Table III, 35 min, average of dogs), the “% total dose in bladder at 35 minutes, Average 99mTc (± s.d)” value was 66.44 % total dose. Also, in data set [1] (Table III, 35 min, dogs), the “Comparison of % total dose in bladder versus 131I-OIH, column headed by drawing 19 (± s.d.)” value came to 92.25. For the same molecule, the “pharmacokinetic behavior of the diastereomers” value in data set [1] (normal dogs) was “identical”. Moreover, the “rate of excretion in the urine” value in data set [1] (normal dogs, versus 131I-OIH) is “comparable rates of excretion to each other and to OIH”. For the same molecule, the “Average % Total Dose in Urine Samples” value in data set [6] (5 min post injection, 5 min) worked out at 13.98 % total dose; in data set [6] (10 min post injection, 10 min), 32.94 % total dose; in data set [6] (15 min post injection, 15 min), 44.29 % total dose; in data set [6] (20 min post injection, 20 min), 51.40 % total dose; in data set [6] (25 min post injection, 25 min), 56.34 % total dose; in data set [6] (30 min post injection, 30 min), 62.55 % total dose. Further, the “Average % Total Dose in Urine Samples” value in data set [6] (35 min post injection, 35 min) worked out at 66.44 % total dose. For the same molecule, the “Blood, % total dose per organ ± s.d.” value was 1.47 ± 0.72 % total dose per organ in data set [2] (setting [9]) and 0.13 ± 0.10 % total dose per organ in data set [2] (setting [10]). Moreover, the “Intestine, % total dose per organ ± s.d.” value in data set [2] (setting [9]) was 0.48 ± 0.18 % total dose per organ; in data set [2] (setting [10]), 0.40 ± 0.17 % total dose per organ. For the same molecule, the results for the “Kidneys, % total dose per organ ± s.d.” value in data set [2] (setting [9]) and in data set [2] (setting [10]) were 4.41 ± 3.6 % total dose per organ and 0.08 ± 0.07 % total dose per organ, respectively. Besides, the “Liver, % total dose per organ ± s.d.” value in data set [2] (setting [9]) amounted to 0.79 ± 0.49 % total dose per organ; in data set [2] (setting [10]), 0.11 ± 0.06 % total dose per organ. Also, the “Stomach, % total dose per organ ± s.d.” value was 0.06 ± 0.03 % total dose per organ in data set [2] (setting [9]) and 0.07 ± 0.12 % total dose per organ in data set [2] (setting [10]). Further, the figures for the “Urine, % total dose ± s.d.” value in data set [2] (setting [9]) and in data set [2] (setting [10]) were 79.32 ± 5.1 % total dose per organ and 91.47 ± 1.1 % total dose per organ, respectively. Also, the “clearance into the urine” value in data set [2] (mice, versus 131I-OIH) is “cleared rapidly into the urine at comparable rates to each other and to the radiopharmaceutical ^131 I-OIH”.
On to `[O]=[Tc](=[O])(=[O])[O-]` [pertechnetate], for which, in data set [3] (in vivo), the “absolute concentration in the renal parenchyma” value is listed as “low”, the “filtered activity reabsorbed by the renal tubules” value is recorded as “about 86%” and the urinary excretion result is “relatively slow”.
